Tests used:
Pseudomonas aeruginosa = assay: Zones of inhibition of impregnated device segments, modified Kirby-Bauer technique; type: cell-based; details: gentian violet after impregnating surfaces of various polymers incl. polyvinylchloride
Protocol: (§1) In Vitro antimicrobial activity. The antimicrobial activity of impregnated catheters was evaluated in duplicate by a modified Kirby-Bauer technique. BBL Mueller Hinton II agar plates (obtained from Fisher Scientific) were inoculated with 0.5 McFarland of the appropriate microorganism (hospital isolates from the MD Anderson Cancer Center). Then 10 mm segments of impregnated devices were embedded in the inoculated plates and placed in an incubator at about 37° C. for at least 18 hours. Zones of inhibition were measured perpendicular to the long axis of the device.
(§2) Anti-microbial activity of GND-ETT and GND-UC segments was assessed by modified Kirby-Bauer method. Segments were embedded in Mueller Hinton agar plates inoculated with one of the following organisms: Candida albicans (CA), vancomycin resistant enterococci (VRE), E. coli (EC), Candida parapsilosis(CP), methicillin resistant S. aureus (MRSA) or Pseudomonas aeruginosa (PS). Plates were incubated at 37° C. Zones of inhibition (ZOI) created by impregnated segments were measured in mm.
(§3) GND-ETT and GND-UC were immersed in sterile pooled bronchoalveolar lavage (BAL) or urine, respectively, and incubated at 37° C. BAL and urine were changed weekly and ZOI were determined in duplicate at weekly intervals.

S. epidermis = details: in vitro study, gentian violet alone; cited from earlier work
[1] = system: Methicillin resistant Staph. aureus (MRSA2066); assay: Zones of inhibition of impregnated device segments, modified Kirby-Bauer technique; type: cell-based; details: in words
Protocol: as §1, §2, §3

[2] = system: Candida parapsilosis (C. Parap.1-100-0022); assay: as above; type: cell-based; details: in words
Protocol: as §1, §2, §3

[3] = system: various nosocomial pathogens; assay: In vitro zones of inhibition of coated or impregnated catheter devices and sutures; type: cell-based; details: coating or impregnating catheter devices and sutures
Protocol: as §1

Alcaligenes faecalis = assay: Zones of inhibition of impregnated PVC tubes; type: cell-based; details: in words
Protocol: as §1

[4] = sutures, compared with Genlenol

CN(C)c1ccc(C(=C2C=CC(=[N+](C)C)C=C2)c2ccc(N(C)C)cc2)cc1 [GV, Gentian violet]
activity against Pseudomonas aeruginosa, agent on its own (Pseudomonas aeruginosa): no activity | colonization of S. epidermis on impregnated CSF silicone shunt surfaces (S. epidermis): prevent the colonization

CC(C)(C)CC(C)(C)c1ccc([O-])c(Cc2ccc(Cl)cc2Cl)c1.CN(C)c1ccc(C(=C2C=CC(=[N+](C)C)C=C2)c2ccc(N(C)C)cc2)cc1 [Genfoctol]
zones against MRSA [1, 4]: much larger zones | zones against C. parapsilosis [2, 4]: much larger zones | in vitro zones of inhibition against various nosocomial pathogens [3]: large in vitro zones of inhibition

CN(C)c1ccc(C(=C2C=CC(=[N+](C)C)C=C2)c2ccc(N(C)C)cc2)cc1.Cc1cc([O-])cc(C)c1Cl [Genlenol]
zone against MRSA ([1]; silicone catheter): increased the zone against MRSA considerably | zones of inhibition against C. parapsilosis ([2]; PVC tubes and PVC catheters): Improvements | zone against C. parapsilosis ([2]; silicone catheter): large zone | zones of inhibition against Alcaligenes faecalis (Alcaligenes faecalis): to a large extent | in vitro zones of inhibition against various nosocomial pathogens [3]: large in vitro zones of inhibition

CN(C)c1ccc(C(=C2C=CC(=[N+](C)C)C=C2)c2ccc(N(C)C)cc2)cc1.[O-]c1cc(Cl)ccc1Oc1ccc(Cl)cc1Cl [Genlosan]
in vitro zones of inhibition against various nosocomial pathogens [3]: large in vitro zones of inhibition

Cc1cc(O)cc(C)c1Cl [PCMX, p-chloro-m-xylenol; 4-chloro-3,5-dimethylxylenol, reference compound]
in vitro zones of inhibition against various nosocomial pathogens [3]: Neither the neutral form of PCMX nor its sodium salt could produce in vitro zones of inhibition

[H]/N=C(\N/C(=N/[H])NCCCCCCNC(=N)NC(=N)Nc1ccc(Cl)cc1)Nc1ccc(Cl)cc1 [chlorhexidine]
activity against Pseudomonas aeruginosa, agent on its own (Pseudomonas aeruginosa): not highly active
